Patent US20210299162A1, “MOLECULAR HYDROGEN-CONTAINING COMPOSITION FOR PREVENTION AND/OR IMPROVEMENT OF ENCEPHALITIS AND/OR MENINGITIS AND SYMPTOM ASSOCIATED WITH THE ENCEPHALITIS AND/OR MENINGITIS” (MiZ Company Limited, priority 2020, published 2021)

What was measured:
[1] = system: meningococcal meningitis; details: person
Description: The case patient is person. The patient presenting with pyrexia and disturbance of consciousness was admitted to hospital urgently. […] The patient initiated inhalation, which was performed for one to three hours per day for one month using a hydrogen gas generator “Jobs-α” (a hydrogen concentration, 4% to 6%; generation rate of hydrogen gas, 200 mL/min) manufactured by MiZ Company Limited.

[2] = room temperature, normal pressure; also printed as 1.6 mg/L; cited from earlier work

SMILES	symptoms (pyrexia, disturbance of consciousness) ([1]; administered for 17 days)	course after completion of the administration ([1]; after 17 days of administration)	clinical course ([1]; relapse after ceftriaxone, inhalation one to three hours per day for one month, hydrogen concentration 4% to 6%, 200 mL/min (Jobs-α))	brain MRI (ventriculitis) ([1]; after hydrogen inhalation one to three hours per day for one month, hydrogen concentration 4% to 6%)	concentration dissolved in water (solubility) [2]
CO/N=C(\C(=O)N[C@@H]1C(=O)N2C(C(=O)O)=C(CSc3nc(=O)c(=O)[nH]n3C)CS[C@H]12)c1csc(N)n1 [Ceftriaxone, reference compound]	resolved symptoms	relapse			
[HH] [hydrogen, molecular hydrogen]			began to improve	improvement of ventriculitis	approximately 1.6 ppm
